Results on 19 compounds are retold here after patent US20240025918A1, “KRAS G12D Inhibitors” (Jacobio Pharmaceuticals Co., Ltd, priority 2020, published 2024).

In test [1] the target is T1, GDP-loaded HIS-KRAS(G12D, aa 1-169) (Homo sapiens, UniProt P01116, G12D).
T1 construct: GDP-loaded HIS-KRAS(G12D, aa 1-169)
The test can be described thus: SOS1 catalyzed nucleotide exchange assay (TR-FRET). The class given is biochemical. Particulars: 4 hours at 25° C. As for the experimental part:
GDP-loaded HIS-KRAS(G12D, aa 1-169) was pre-incubated with a compound in the presence of 10 nM GDPin a 384-well plate (Greiner) for 15 min, then purified SOS1 ExD(Flag tag, aa 564-1049), BODIPY™ FL GTP (Invitrogen) and MAb (monoclonal antibody) Anti 6HIS-Tb cryptate Gold (Cisbio) were added to the assay wells (Final concentration: 1.5 nM GDP-loaded HIS-KRAS(G12D), 5 nM GDP, 0.5 μM SOS1 ExD, 80 nM BODIPY™ FL GTP, 52.5 ng/mL MAb Anti 6HIS-Tb cryptate Gold) and incubated for 4 hours at 25° C. Wells containing same percent of DMSO served as vehicle control, and wells without KRAS served as low control. TR-FRET signals were read on Tecan Spark multimode microplate reader. The parameters were F486: Excitation 340 nm, Emission 486 nm, Lag time 100 μs, Integration time 200 μs; F515: Excitation 340 nm, Emission 515 nm, Lag time 100 μs, Integration time 200 μs. TR-FRET ratios for each individual wells were calculated by equation: TR-FRET ratio=(Signal F515/Signal F486)*10000. The percent of activation of compounds treated wells were normalized between vehicle control and low control (% Activation=(TR-FRET ratioCompound treated−TR-FRET ratioLow control)/(TR-FRET ratioVehicle control−TR-FRET ratioLow control)*100%). Then the data were analyzed by fitting a 4-parameter logistic model or calculating in Excel to calculate IC50 values.

Test [2] has as its target T2, GppNp-loaded HIS-KRAS(G12D, aa 1-169) and cRAF RBD (Homo sapiens, UniProt P01116, G12D).
T2 construct: GppNp-loaded HIS-KRAS(G12D, aa 1-169)
The test can be described thus: GTP-KRAS and cRAF interaction assay (HTRF). Type of test: biochemical. Conditions: 2 hours at 25° C. As to the method:
GppNp-loaded HIS-KRAS(G12D, aa 1-169) was pre-incubated with a compound in the presence of 200 μM GTP in a 384-well plate (Greiner) for 15 min, then cRAF RBD(GST tag, aa 50-132, CreativeBioMart), MAb Anti GST-d2 (Cisbio) and MAb Anti 6HIS-Tb cryptate Gold (Cisbio) were added to the assay wells (Final concentration: 2.0 nM GppNp-loaded HIS-KRAS(G12D), 100 μM GTP, 35 nM cRAF RBD, 1 μg/mL MAb Anti GST-d2, 52.5 ng/mL MAb Anti 6HIS-Tb cryptate Gold) and incubated for 2 hours at 25° C. Wells containing same percent of DMSO served as vehicle control, and wells without KRAS served as low control. HTRF signals were read on Tecan Spark multimode microplate reader and HTRF ratios were calculated under manufacturer's instructions. The percent of activation of compounds treated wells were normalized between vehicle control and low control (% Activation=(HTRF ratioCompound treated−HTRF ratioLow control)/(HTRF ratioVehicle control−HTRF ratioLow control)*100%). Then the data were analyzed by fitting a 4-parameter logistic model or calculating in Excel to calculate IC50 values.
In general terms: Time-resolved FRET reads energy transfer from a long-lived donor to a nearby acceptor.

Test [3] has as its system AGS cells expressing KRAS G12D. The test can be described thus: Phospho-ERK1/2(THR202/TYR204) HTRF assay. The class given is cell-based. Conditions: Homo sapiens; Phospho-ERK1/2 in AGS cells, 2 hours incubation. As for the experimental part: AGS cells expressing KRAS G12D were cultured in F12K medium (Gibco) containing 10% fetal bovine serum (Gibco). The AGS cells in culture medium were seeded in 96-well plates at a concentration of 40,000 cells/well and then put in a 37° C./5% CO2 cell incubator to incubate overnight. The next day, culture medium was removed and the compound diluted in assay medium (F12K, 0.1% FBS) was added in each well. After 2 hours incubation in a 37° C./5% CO2 cell incubator, the assay medium in 96-well plates was removed, then 50 μL of 1× blocking reagent-supplemented lysis buffer (Cisbio) was added and the plates were incubated at 25° C. for 45 min with shaking. 10 μL of cell lysates from the 96-well plates were transferred to a 384-well plate (Greiner) containing 2.5 μL/well HTRF® pre-mixed antibodies (Cisbio 64AERPEH). Incubate 4 hours at 25° C. and then read HTRF signals on Tecan Spark multimode microplate reader. The data were analyzed using a 4-parameter logistic model to calculate IC50 values.

The test system of test [4] is AsPC-1. Put plainly: Cell growth inhibition assay, AsPC-1 (CellTiter-Glo). Particulars: Homo sapiens, ASPC1, 144 h; AsPC-1 cell viability, 6 days incubation. Type of test: cell-based. As for the experimental part:
AsPC-1 cultured in RPMI-1640 medium (Gibco) containing 10% fetal bovine serum (Gibco). Cells in culture medium were plated in 96-well plates at a concentration of 1000 cells/well (100 μL/well) and allowed to attach overnight.
(§1) The next day, compounds were diluted in culture medium and added to the plates. After 6 days incubation in a 37° C./5% CO2 cell incubator, the cell viability was detected by CellTiter-Glo® Luminescent Cell Viability Assay kit (Promega). Luminescent signals were read on Tecan Spark multimode microplate reader and analyzed using a 4-parameter logistic model to calculate IC50 values.
In general terms: ATP-based viability assays read luminescence as a measure of living cells.

For test [5], the system named is AGS. Put plainly: Cell growth inhibition assay, AGS (CellTiter-Glo). The class given is cell-based. Conditions: Homo sapiens, 144 h; AGS cell viability, 6 days incubation. As to the method:
AGS cultured in F12K medium (Gibco) containing 10% fetal bovine serum (Gibco). Cells in culture medium were plated in 96-well plates at a concentration of 500 cells/well (100 μL/well) and allowed to attach overnight.
as §1

T2 sequence (P01116 1-169 isoform P01116-2 G12D): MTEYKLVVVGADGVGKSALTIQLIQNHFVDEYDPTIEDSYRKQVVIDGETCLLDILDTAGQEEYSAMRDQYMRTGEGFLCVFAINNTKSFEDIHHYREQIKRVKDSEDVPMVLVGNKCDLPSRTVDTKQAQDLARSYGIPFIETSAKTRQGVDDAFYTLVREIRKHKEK
T1 sequence (P01116 1-169 isoform P01116-2 G12D): as above

By IC50 is commonly meant the midpoint of a concentration-inhibition curve. A higher IC50 goes with weaker potency. Turning to `C#Cc1cccc2cc(O)cc(-c3c(F)cc4c(N5CC6CCC(C5)N6)nc(OCC5(CN6CCc7cccnc7C6)CC5)nc4c3F)c12` [Compound 15], the IC50 in test [1] came to 6.06 nM; in test [2] it was 157 nM; in test [3], 68.9 nM; in test [4], 97.3 nM; in test [5] it was 13.9 nM.

Take `C#Cc1cccc2cc(O)cc(-c3c(F)cc4c(N5CC6CCC(C5)N6)nc(OCC5(CN6CCOC7(CC7)C6)CC5)nc4c3F)c12` (single isomer, unassigned) [Compound 2B]: the IC50 in test [1] was found to be 1.24 nM; in test [2] it was 41.3 nM; in test [3], 30.3 nM; in test [4], 13.5 nM; in test [5] it was 0.892 nM.

On to `C#Cc1cccc2cc(O)cc(-c3c(F)cc4c(N5CC6CCC(C5)N6)nc(OCC5(CN6CCC7(CC6)COC7)CC5)nc4c3F)c12` [Compound 12], for which the IC50 in test [1] worked out at 14.2 nM; in test [2] it was 80.8 nM; in test [3], 1.94 nM; in test [4], 83.2 nM; in test [5], 3.69 nM.

As to `C#Cc1cccc2cc(O)cc(-c3c(F)cc4c(N5CC6CCC(C5)N6)nc(OCC5(CN6CCOCC67CCC7)CC5)nc4c3F)c12` [Compound 35], the IC50 was determined as 2.17 nM in test [1]; 157 nM in test [2]; 20.2 nM in test [3]; 59.6 nM in test [4]; 8.43 nM in test [5].

Consider `C#Cc1cccc2cc(O)cc(-c3ccc4c(N5CC6CCC(C5)N6)nc(OCC5(CN6CCC7(CC6)CC7)CC5)nc4c3F)c12` [Compound 30], for which the IC50 came to 28.6 nM in test [1]; 133 nM in test [2]; 31.5 nM in test [3]; 81.7 nM in test [4]; 9.77 nM in test [5].

Turning to `C#Cc1cccc2cc(O)cc(-c3c(F)cc4c(N5CC6CCC(C5)N6)nc(OCC5(CN6CC7(CCOC7)C6)CC5)nc4c3F)c12` [Compound 46], the half-maximal inhibitory concentration (IC50) was 5.92 nM in test [1]; 242 nM in test [2]; 23.1 nM in test [3]; 488 nM in test [4]; 55.4 nM in test [5].

`C#Cc1cccc2cc(O)cc(-c3c(F)cc4c(N5CC6CCC(C5)N6)nc(OCC5(CN6Cc7cccnc7C6)CC5)nc4c3F)c12` [Compound 17]: the IC50 in test [1] amounted to 1.99 nM; in test [2] it was 273 nM; in test [3], 56.3 nM; in test [4] it was 158 nM; in test [5] it was 11.8 nM.

Turning to `C#Cc1cccc2cc(O)cc(-c3c(F)cc4c(N5CC6CCC(C5)N6)nc(OCC5(CN6CCC7(CCOCC7)C6)CC5)nc4c3F)c12` [Compound 55], the IC50 in test [1] came out at 1.37 nM; in test [2], 23.1 nM; in test [3] it was 5.39 nM; in test [4] it was 77 nM; in test [5], 7.71 nM.

Regarding `C#Cc1cccc2cc(O)cc(-c3c(F)cc4c(N5CC6CCC(C5)N6)nc(OCC5(CN6CC(OC)C6)CC5)nc4c3F)c12` [Compound 21], the IC50 is 1.94 nM in test [1]; 74.5 nM in test [2]; 13.5 nM in test [3]; 334 nM in test [4]; 16.3 nM in test [5].

For `C#Cc1cccc2cc(O)cc(-c3c(F)cc4c(N5CC6CCC(C5)N6)nc(OCC5(CN6CC7(COC7)C6)CC5)nc4c3F)c12` [Compound 19], the IC50 was determined as 2.27 nM in test [1]; 66.9 nM in test [2]; 19.8 nM in test [3]; 710 nM in test [4]; 12.9 nM in test [5].

As to `C#Cc1cccc2cc(O)cc(-c3ccc4c(N5CC6CCC(C5)N6)nc(OCC5(CN6CC7CC6CO7)CC5)nc4c3F)c12` (stereo not shown) [Compound 9], the IC50 in test [1] was determined as 7.77 nM; in test [2], 62 nM; in test [3], 2.59 nM; in test [4], 138 nM; in test [5], 10.5 nM.

On to `C#Cc1cccc2cc(O)cc(-c3c(F)cc4c(N5CC6CCC(C5)N6)nc(OCC5(CN6CCC7(CCCCO7)C6)CC5)nc4c3F)c12` (stereo not shown) [Compound 34], for which the IC50 in test [1] worked out at 3.07 nM; in test [2], 82.6 nM; in test [3], 38.9 nM; in test [4] it was 208 nM; in test [5] it was 16.9 nM.

As to `C#Cc1cccc2cc(O)cc(-c3c(F)cc4c(N5CC6CCC(C5)N6)nc(OCC5(CN6C7CCC6CC(=O)C7)CC5)nc4c3F)c12` [Compound 51], the IC50 is 1.26 nM in test [1]; 59.4 nM in test [2]; 12.1 nM in test [3]; 66 nM in test [4]; 1.25 nM in test [5].

Regarding `C#Cc1cccc2cc(O)cc(-c3c(F)cc4c(N5CC6CCC(C5)N6)nc(OCC5(CN6CCCC7(C6)CC7(F)F)CC5)nc4c3F)c12` (stereo not shown) [Compound 5], the IC50 in test [1] worked out at 55.5 nM; in test [2] it was 310 nM; in test [4] it was 62.1 nM; in test [5], 21 nM.

With `C#Cc1cccc2cc(O)cc(-c3ccc4c(N5CC6CCC(C5)N6)nc(OCC5(CN6CC7CCC(C6)O7)CC5)nc4c3F)c12` [Compound 8], the IC50 in test [1] was 16.8 nM; in test [2], 307 nM; in test [3], 21.2 nM; in test [4], 55.3 nM; in test [5], 31.6 nM.

On to `C#Cc1cccc2cc(O)cc(-c3c(F)cc4c(N5CC6CCC(C5)N6)nc(OCC5(CN6CC7(CCOCC7)C6)CC5)nc4c3F)c12` [Compound 22], for which the IC50 in test [1] was determined as 1.39 nM; in test [2], 40.2 nM; in test [3] it was 6.95 nM; in test [4], 413 nM; in test [5] it was 19.7 nM.

Turning to `C#Cc1cccc2cc(O)cc(-c3c(F)cc4c(N5CC6CCC(C5)N6)nc(OCC5(CN6CCC7(C6)CC7(F)F)CC5)nc4c3F)c12` (stereo not shown) [Compound 14], the IC50 in test [1] amounted to 4.36 nM; in test [2], 79.2 nM; in test [3], 182 nM; in test [4], 26.5 nM; in test [5] it was 10.7 nM.

As to `C#Cc1cccc2cc(O)cc(-c3c(F)cc4c(N5CC6CCC(C5)N6)nc(OCC5(CN6C[C@H]7C[C@@H]6CO7)CC5)nc4c3F)c12` [Compound 36], the IC50 is 2.1 nM in test [1]; 35.1 nM in test [2]; 3.07 nM in test [3]; 77.4 nM in test [4]; 8.71 nM in test [5].

Turning to `C#Cc1cccc2cc(O)cc(-c3c(F)cc4c(N5CC6CCC(C5)N6)nc(OCC5(CN6CCc7sccc7C6)CC5)nc4c3F)c12` [Compound 52], the IC50 turned out to be 4.26 nM in test [1]; 286 nM in test [2]; 271 nM in test [3]; 93 nM in test [4]; 32.4 nM in test [5].
